Measurements as given in patent US20210145801A1, “THERAPY FOR PROTEIN MISFOLDING DISEASE” (WREN THERAPEUTICS LIMITED, priority 2018, published 2021).
Entries after “also recorded” stand apart in the source; their conditions may differ.

Tests used:
[1] = target: T1, Aβ42 oligomers (Homo sapiens, UniProt P05067); assay: Ca2+ influx assay (lipid vesicle disruption); format: biochemical; conditions: 2 μM Aβ42; 5-fold excess added at 0 h; measured at 2 h (half-time)
T1 construct: made in house; host or cells: E. coli BL21 Gold (DE3)
Procedure: Single vesicles tethered to PLL-PEG coated borosilicate glass coverslides (VWR International, 22×22 mm, product number 63 1-0122) were placed on an oil immersion objective mounted on an inverted Olympus IX-71 microscope. Each coverslide was affixed at Frame-Seal incubation chambers and was incubated with 50 μL of HEPES buffer of pH 6.5. Just before the imaging, the HEPES buffer was replaced with 50 μL Ca^2+ containing buffer solution L-15. 16 (4×4) images of the coverslide were recorded under three different conditions (background, in the presence of Aβ42 and after addition of ionomycin (Cambridge Bioscience Ltd, Cambridge, UK), respectively). The distance between each field of view was set to 100 μm, and was automated (bean-shell script, Micromanager) to avoid any user bias. After each measurement the script allowed the stage (Prior H117, Rockland, Mass., USA) to move the field of view back to the start position such that identical fields of view could be acquired for the three different conditions. Images of the background were acquired in the presence of L15 buffer. For each field of view 50 images were taken with an exposure time of 50 ms. […] The recorded images were analysed using ImageJ to determine the fluorescence intensity of each spot under the three different conditions in the presence of an aggregation mixture incubated with and without Netoglitazone.

[2] = test system: Aβ1-42Neur worms (CL2355); assay: Chemotaxis assay in Aβ1-42Neur worms; format: in vivo, C. elegans; conditions: 5 μM; 5 days at 24° C.; day 6 of adulthood
Procedure: Chemotaxis measurements were carried out as previously described (O. Margie, C. Palmer, I. Chin-Sang, C. elegans Chemotaxis Assay. J Vis Exp, e50069 (2013)) and as illustrated in FIG. 6C. Briefly, adult synchronized transgenic C. elegans CL2355 worms and wild-type healthy worms were incubated with or without 5 μM Netoglitazone for 5 days 24° C. At day 6 of adulthood the worms were then collected, washed with M9 buffer three times, and assayed in 9 cm screening plates (1.9% agar, 1 mM CaCl2), 1 mM MgSO4, and 25 mM phosphate buffer, pH 6.0) seeded with 50 μl of a 10× culture of Op50 Bacteria or sterile water, as attractant or test conditions, respectively and in combination with 1 μl of 1M Levamisole. Ca. 200 worms were placed in the central quadrant of the plate and incubated at 24° C. for 8 h, after which the chemotaxis index (CI) was scored. The CI was defined as follows (O. Margie et al (2013)):
(number of worms at the attractant locations−number of worms at the control locations)/total number of worms on the plate
Worms that were remaining in the central quadrant were excluded.

[3] = test system: Aβ3-42::GFPMuscular worms (CL2331); assay: Automated motility assay in Aβ3-42::GFPMuscular worms; format: in vivo, C. elegans; conditions: vs untreated worms
Procedure: CL2331; dvIs37 [myo-3p::GFP::A-Beta (3-42)+rol-6(su1006)] (Aβ3-42::GFPMuscular worms). Maintain at 16C. Roller. Diffuse and aggregated GFP expression in body wall muscle. Low brood size. Sicker at higher temperatures. (C. D. Link et al., The β amyloid peptide can act as a modular aggregation domain. Neurobiol. Dis. 32, 420-425 (2008)); and
Briefly, Netoglitazone stocks (5 mM in 100% DMSO) were used at an appropriate concentration to seed 9-cm NGM plates. Plates were then placed in a laminar flow hood at room temperature (22° C.) for up to 4 hours to dry. […]
All C. elegans populations were cultured at 20° C. and developmentally synchronized from a 4 h egg-lay. At 64-72 h post-egg-lay (time zero), individuals were transferred to FUDR plates, and body movements were assessed over the times indicated. At different ages, the animals were washed off the plates with M9 buffer and spread over an OP-50 unseeded 9 cm plate, after which their movements were recorded at 20 fps using a recently developed microscopic procedure (M. Perni et al., Massively parallel C. elegans tracking provides multi-dimensional fingerprints for phenotypic discovery. J. Neurosci. Methods. 306, 57-67 (2018)) for 1 min. Up to 600 animals were counted in each experiment in duplicate unless stated otherwise. […]

T1 sequence (P05067 671-713): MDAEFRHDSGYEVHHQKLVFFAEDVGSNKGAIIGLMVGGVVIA

Compound: O=C1NC(=O)C(Cc2ccc3cc(OCc4ccccc4F)ccc3c2)S1 (stereo not drawn) [Netoglitazone]
- Protection against lipid vesicle disruption by Aβ42 oligomers (Ca2+ influx) [1]: protected against the neurotoxic species-induced vesicle disruption; also recorded: decreased substantially the toxic effect
- Chemotaxis index of Aβ1-42Neur worms [2]: chemotaxis index was significantly improved; also recorded: significantly improves the (A) chemotaxis index
- Motility of Aβ3-42::GFPMuscular worms [3]: significantly improves the motility of Aβ3-42::GFPMuscular worms
